Literature values, collected in patent publication US20120209125A1, “Singlet Oxygen Production and Dosimetry for Photodynamic Therapy” (PHYSICAL SCIENCES, INC., priority 2011, published 2012).

Settings: isoflurane gas anesthesia; 'minimally metabolized'

Compound: FC(F)OC(Cl)C(F)(F)F (stereo not shown) [isoflurane]
- fraction metabolized by the liver: < 0.17%
